The text below walks through data of US20080214611A1, “Pharmaceutical Compositions - 659” (AstraZeneca AB, priority 2007, published 2008).

Series [1] is described as follows: in vivo rat study: plasma concentration after oral administration of amorphous versus wet-milled crystalline dispersions. To be noted: 100 mmol/kg, maximum plasma concentration ratio of amorphous dispersion (Example 1 or 2) to wet-milled crystalline dispersion.
Method: (§1) The dispersions prepared according to Example 1 and Example 2 were tested in in vivo rat study together with dispersions comprising crystalline particles (prepared by wet milling) of compound A and B, respectively. The dispersions were orally administered at 100 mmol/kg.
(§2) The open circles illustrate the results obtained upon administration of the dispersions comprising crystalline particles.
For series [2] the following is noted: rat, in vivo, po.
Method: as §1, §2

Take `O=C(NC1CCCCC1)c1nn(-c2ccc(Cl)cc2Cl)c(-c2ccc(OS(=O)(=O)CCC(F)(F)F)cc2)c1CO` [Compound B, 1-propanesulfonic acid, 3,3,3-trifluoro-, 4-[3-[(cyclohexylamino)carbonyl]-1-(2,4-dichlorophenyl)-4-(hydroxymethyl)-1H-pyrazol-5-yl]phenyl ester]: the “c^maxamorph/c^maxcrystal” value in series [1] is given as 10. Consider `O=C(NC1CCCCC1O)c1nn(-c2ccc(Cl)cc2Cl)c(-c2ccc(OS(=O)(=O)CCC(F)(F)F)cc2)c1CO` (centres unmarked) [Compound A, 1-propanesulfonic acid, 3,3,3-trifluoro-, 4-[1-(2,4-dichlorophenyl)-3-[[(2-hydroxycyclohexyl)amino]carbonyl]-4-(hydroxymethyl)-1H-pyrazol-5-yl]phenyl ester], for which the AUCamorph/AUCcrystal in series [2] was 4.8.
